Key:
[1] = test system: AMBEL (Ambrosia artemisifolia); experiment: Postemergence herbicidal evaluation; type: in vivo, L.
Summary of the method: (§1)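 Visual 0–9 injury scores versus control plants, covering stand, vigour, malformation, size, chlorosis and general appearance, taken four to five weeks post-spray and averaged over replicate tests. Plants were sprayed at roughly two weeks old and held on greenhouse benches.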

[2] = test system: CASOB (Cassia obtusifolia); experiment: Postemergence herbicidal evaluation; type: in vivo, L.
Summary of the method: as §1

[3] = test system: CHEAL (Chenopodium album); experiment: Postemergence herbicidal evaluation; type: in vivo, L.
Summary of the method: as §1

[4] = test system: ECHCG (Echinochloa crus-galli); experiment: Postemergence herbicidal evaluation; type: in vivo, (L.) Beau
Summary of the method: as §1

ORYSAT (Rice, Tebonnet) [5] = experiment: Postemergence herbicidal evaluation; type: in vivo, Oryza sativa, (L.) Tebonnet
Summary of the method: as §1

ZEAMX (Corn, Field) = experiment: Postemergence herbicidal evaluation; type: in vivo, Zea mays, L.
Summary of the method: as §1

[6] = test system: IPOHE (Ipomoea hederacea); experiment: Preemergence herbicidal evaluation; type: in vivo, (L.) Jacq.; conditions: rated 4-5 weeks after treatment
[7] = test system: GLXMAW (Soybean, Williams); experiment: Preemergence herbicidal evaluation; type: in vivo, Glycine max, (L.) Merr. cv Williams; conditions: rated 4-5 weeks after treatment
ORYSAT (Rice, Tebonnet) [8] = experiment: Preemergence herbicidal evaluation; type: in vivo, Oryza sativa, (L.) Tebonnet; conditions: rated 4-5 weeks after treatment
[9] = test system: TRZAWR (Wheat, Winter, cv Riband); experiment: Preemergence herbicidal evaluation; type: in vivo, Triticum aestivum; conditions: rated 4-5 weeks after treatment
Summary of the method: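 Rating 0–9, visual, vs control; 4–5 wk after spraying seeded cups with compound in aq. acetone; conventional greenhouse care.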

[10] = test system: ECHORC (Echinochloa oryzoides); experiment: Flooded paddy, preemergence weed control; type: in vivo, Echinochloa oryzoides (Ard.) Fritsch.; conditions: rated 3-4 weeks after treatment, 0-9 rating scale
Summary of the method: (§2)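 Greenhouse paddy test, preemergence. Seeds planted in the top 0.5 cm of silt loam soil, which remained flooded at 1.5–3 cm depth. Scored 0-9 by visual comparison with control.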

CYPIR (Cyperus iria) = experiment: Flooded paddy, preemergence weed control; type: in vivo; conditions: rated 3-4 weeks after treatment, 0-9 rating scale
Summary of the method: as §2

[11] = test system: SAGPY (Sagittaria pygmaea); experiment: Flooded paddy, preemergence weed control; type: in vivo, L.; conditions: rated 3-4 weeks after treatment, 0-9 rating scale
Summary of the method: as §2

Row | Structure (SMILES) | Postemergence herbicidal rating, AMBEL ([1]; rate 0.0320 kg/ha) | Postemergence herbicidal rating, AMBEL ([1]; rate 0.0620 kg/ha) | Postemergence herbicidal rating, CASOB ([2]; rate 0.0320 kg/ha) | Postemergence herbicidal rating, CASOB ([2]; rate 0.0620 kg/ha) | Postemergence herbicidal rating, CHEAL ([3]; rate 0.0320 kg/ha) | Postemergence herbicidal rating, CHEAL ([3]; rate 0.0620 kg/ha) | Postemergence herbicidal rating, ECHCG ([4]; rate 0.0320 kg/ha) | Postemergence herbicidal rating, ECHCG ([4]; rate 0.0620 kg/ha) | Postemergence herbicidal rating, ORYSAT (ORYSAT (Rice, Tebonnet) [5]; rate 0.0320 kg/ha) | Postemergence herbicidal rating, ORYSAT (ORYSAT (Rice, Tebonnet) [5]; rate 0.0620 kg/ha) | Postemergence herbicidal rating, ZEAMX (ZEAMX (Corn, Field); rate 0.0320 kg/ha) | Postemergence herbicidal rating, ZEAMX (ZEAMX (Corn, Field); rate 0.0620 kg/ha) | Preemergence herbicidal rating IPOHE ([6]; Rate 0.0620 kg/ha) | Preemergence herbicidal rating IPOHE ([6]; Rate 0.1250 kg/ha) | Preemergence herbicidal rating IPOHE ([6]; Rate 0.2500 kg/ha) | Preemergence herbicidal rating GLXMAW ([7]; Rate 0.0620 kg/ha) | Preemergence herbicidal rating GLXMAW ([7]; Rate 0.1250 kg/ha) | Preemergence herbicidal rating GLXMAW ([7]; Rate 0.2500 kg/ha) | Preemergence herbicidal rating ORYSAT (ORYSAT (Rice, Tebonnet) [8]; Rate 0.0620 kg/ha) | Preemergence herbicidal rating ORYSAT (ORYSAT (Rice, Tebonnet) [8]; Rate 0.1250 kg/ha) | other results
1 | CCOc1cc(OCC)nc(-c2nsc3ccc(-n4c(=O)cc(C(F)(F)F)n(C)c4=O)cc23)n1 [Compound 43, 3-[3-(4,6-diethoxy-2-pyrimidinyl)-1,2-benzisothiazol-5-yl]-1-methyl-6-(trifluoromethyl)uracil] | 9.0 | 9.0 | 2.0 | 3.0 | 6.0 | 9.0 | 2.0 | 2.0 | 2.0 | 2.0 | 4.5 | 4.5 | 0.0 | 0.0 | 2.0 | 1.0 | 3.0 | 5.0 | 1.0 | 2.0 | Preemergence herbicidal rating ORYSAT (ORYSAT (Rice, Tebonnet) [8]; Rate 0.2500 kg/ha): 2.0; Preemergence herbicidal rating TRZAWR ([9]; Rate 0.0620 kg/ha): 1.0; Preemergence herbicidal rating TRZAWR ([9]; Rate 0.1250 kg/ha): 1.0; Preemergence herbicidal rating TRZAWR ([9]; Rate 0.2500 kg/ha): 2.0; herbicidal rating, ECHORC ([10]; rate 0.0320 kg/ha): 5.0; herbicidal rating, ECHORC ([10]; rate 0.1250 kg/ha): 9.0; herbicidal rating, CYPIR (CYPIR (Cyperus iria); rate 0.0320 kg/ha): 0.0; herbicidal rating, CYPIR (CYPIR (Cyperus iria); rate 0.1250 kg/ha): 5.0; herbicidal rating, SAGPY ([11]; rate 0.0320 kg/ha): 0.0; herbicidal rating, SAGPY ([11]; rate 0.1250 kg/ha): 2.0
2 | Cc1cccnc1-c1nsc2cc(F)c(-n3c(=O)cc(C(F)(F)F)n(C)c3=O)cc12 [Compound 44, 3-[6-fluoro-3-(3-methyl-2-pyridyl)-1,2-benzisothiazol-5-yl]-1-methyl-6-(trifluoromethyl)uracil] | 9.0 | 9.0 | 2.0 | 4.0 | 9.0 | 9.0 | 1.0 | 3.0 | 2.0 | 3.5 | 5.0 | 5.5 | 3.0 | 7.5 | 9.0 | 5.0 | 6.5 | 9.0 | 6.5 | 8.0 | Preemergence herbicidal rating ORYSAT (ORYSAT (Rice, Tebonnet) [8]; Rate 0.2500 kg/ha): 8.0; Preemergence herbicidal rating TRZAWR ([9]; Rate 0.0620 kg/ha): 6.0; Preemergence herbicidal rating TRZAWR ([9]; Rate 0.1250 kg/ha): 7.0; Preemergence herbicidal rating TRZAWR ([9]; Rate 0.2500 kg/ha): 9.0; herbicidal rating, ECHORC ([10]; rate 0.0080 kg/ha): 3.0; herbicidal rating, ECHORC ([10]; rate 0.0320 kg/ha): 8.5; herbicidal rating, ECHORC ([10]; rate 0.1250 kg/ha): 9.0; herbicidal rating, CYPIR (CYPIR (Cyperus iria); rate 0.0080 kg/ha): 0.0; herbicidal rating, CYPIR (CYPIR (Cyperus iria); rate 0.0320 kg/ha): 8.0; herbicidal rating, CYPIR (CYPIR (Cyperus iria); rate 0.1250 kg/ha): 9.0; herbicidal rating, SAGPY ([11]; rate 0.0080 kg/ha): 0.0; herbicidal rating, SAGPY ([11]; rate 0.0320 kg/ha): 4.5; herbicidal rating, SAGPY ([11]; rate 0.1250 kg/ha): 9.0
3 | Cc1cccnc1-c1nsc2cc(F)c(N3C(=O)C4=C(CCCC4)C3=O)cc12 [Compound 46, N-[6-fluoro-3-(3-methyl-2-pyridyl)-1,2-benzisothiazol-5-yl]-1-cyclohexene-1,2-dicarboximide] | 7.0 | 9.0 | 7.0 | 9.0 | 6.0 | 9.0 | 2.0 | 2.0 | 4.0 | 3.5 | 4.5 | 4.5 | 0.0 | 2.0 | 9.0 | 0.0 | 1.0 | 2.0 | 1.0 | 0.0 | Postemergence herbicidal rating, AMBEL ([1]; rate 0.1250 kg/ha): 9.0; Postemergence herbicidal rating, CASOB ([2]; rate 0.1250 kg/ha): 9.0; Postemergence herbicidal rating, CHEAL ([3]; rate 0.1250 kg/ha): 9.0; Postemergence herbicidal rating, ECHCG ([4]; rate 0.1250 kg/ha): 4.0; Postemergence herbicidal rating, ORYSAT (ORYSAT (Rice, Tebonnet) [5]; rate 0.1250 kg/ha): 4.5; Postemergence herbicidal rating, ZEAMX (ZEAMX (Corn, Field); rate 0.1250 kg/ha): 5.5; Preemergence herbicidal rating ORYSAT (ORYSAT (Rice, Tebonnet) [8]; Rate 0.2500 kg/ha): 4.0; Preemergence herbicidal rating TRZAWR ([9]; Rate 0.0620 kg/ha): 1.0; Preemergence herbicidal rating TRZAWR ([9]; Rate 0.1250 kg/ha): 0.0; Preemergence herbicidal rating TRZAWR ([9]; Rate 0.2500 kg/ha): 2.0; herbicidal rating, ECHORC ([10]; rate 0.0320 kg/ha): 5.0; herbicidal rating, ECHORC ([10]; rate 0.1250 kg/ha): 7.0; herbicidal rating, CYPIR (CYPIR (Cyperus iria); rate 0.0320 kg/ha): 1.0; herbicidal rating, CYPIR (CYPIR (Cyperus iria); rate 0.1250 kg/ha): 3.0; herbicidal rating, SAGPY ([11]; rate 0.0320 kg/ha): 0.0; herbicidal rating, SAGPY ([11]; rate 0.1250 kg/ha): 2.0
4 | C[C@@H]1OC(c2nsc3ccc(-n4c(=O)cc(C(F)(F)F)n(C)c4=O)cc23)O[C@@H]1C (stereo partly drawn) [Compound 47, 3-[3-[(4R,5S)-4,5-dimethyl-1,3-dioxolan-2-yl]-1,2-benzisothiazol-5-yl]-1-methyl-6-(trifluoromethyl)uracil] | 9.0 | 9.0 | 6.0 | 9.0 | 9.0 | 9.0 | 0.0 | 3.0 | 4.0 | 6.5 | 3.5 | 4.0 | 7.5 | 8.0 | 9.0 | 7.0 | 8.0 | 9.0 | 7.5 | 7.5 | Preemergence herbicidal rating ORYSAT (ORYSAT (Rice, Tebonnet) [8]; Rate 0.2500 kg/ha): 9.0; Preemergence herbicidal rating TRZAWR ([9]; Rate 0.0620 kg/ha): 6.0; Preemergence herbicidal rating TRZAWR ([9]; Rate 0.1250 kg/ha): 8.0; Preemergence herbicidal rating TRZAWR ([9]; Rate 0.2500 kg/ha): 8.0; herbicidal rating, ECHORC ([10]; rate 0.0080 kg/ha): 5.0; herbicidal rating, ECHORC ([10]; rate 0.0320 kg/ha): 8.5; herbicidal rating, ECHORC ([10]; rate 0.1250 kg/ha): 9.0; herbicidal rating, CYPIR (CYPIR (Cyperus iria); rate 0.0080 kg/ha): 0.0; herbicidal rating, CYPIR (CYPIR (Cyperus iria); rate 0.0320 kg/ha): 8.5; herbicidal rating, CYPIR (CYPIR (Cyperus iria); rate 0.1250 kg/ha): 9.0; herbicidal rating, SAGPY ([11]; rate 0.0080 kg/ha): 0.0; herbicidal rating, SAGPY ([11]; rate 0.0320 kg/ha): 7.5; herbicidal rating, SAGPY ([11]; rate 0.1250 kg/ha): 9.0

— patent US6706663B2, “Herbicidal 3-heterocyclic substituted benzisothiazole and benzisoxazole compounds” (Wyeth, priority 2000, dated 2004)
